Several values for one entry are separate records, joined by “and”; a condition that tells them apart may be missing. Equal values may be shown once.
Experiments:
[1] = molecular target: cloned 5-HT receptors; conditions: read-out: Ki values at several cloned 5-HT receptors; cited from earlier work
[2] = molecular target: T1, mouse SNORF33 (Mus musculus, UniProt Q923Y8); assay: [3H]-TYR binding (saturation and displacement) to mouse SNORF33 COS-7 membranes; conditions: mouse SNORF33, displacement of [3H]TYR; read-out: Ki (individual determinations)
T1 construct: expressed in transfected cells; host or cells: COS-7 (membranes)
T1 sequence (Q923Y8 whole entry): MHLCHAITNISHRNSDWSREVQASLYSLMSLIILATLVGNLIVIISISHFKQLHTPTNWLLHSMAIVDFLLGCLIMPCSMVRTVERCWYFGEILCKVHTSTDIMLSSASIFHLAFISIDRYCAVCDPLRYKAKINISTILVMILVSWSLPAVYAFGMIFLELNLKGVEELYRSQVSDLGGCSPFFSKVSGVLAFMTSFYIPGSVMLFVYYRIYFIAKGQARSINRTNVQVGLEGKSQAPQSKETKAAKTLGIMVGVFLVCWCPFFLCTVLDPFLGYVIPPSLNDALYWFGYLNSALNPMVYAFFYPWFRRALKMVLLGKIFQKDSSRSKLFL
Procedure: [^3H]-TYR and [^3H]-T binding assays were performed essentially as described by Mallard et al. (1992), with minor modifications. Radioligand binding assays were performed by diluting membranes prepared from cells expressing the receptor (with co-expression of the rat G-protein alpha S subunit for human SNORF33) in 25 mM Gly-Gly buffer (Sigma, pH=7.4 @ 0° C.) containing 5 mM ascorbate and 10 μM pargyline (final protein concentration in assay=100-300 μg/ml). Membranes were then incubated with either [^3H]-TYR (American Radiochemicals, specific activity 60 mCi/μmole) or [^3H]-T (Amersham, specific activity 98 mCi/μmole) in the presence or absence of competing ligands on ice for 30 min in a total volume of 250 μl in 96 well microtiter plates. The bound ligand was separated from free by filtration through GF/B filters presoaked in 0.5% polyethyleneimine (PEI), using Tomtec (Wallac) or Brandel Cell Harvester vacuum filtration device. After addition of Ready Safe (Beckman) scintillation fluid, bound radioactivity was quantitated using a Trilux (Wallac) scintillation counter (approximately 20% counting efficiency of bound counts). Data was fit to non-linear curves using GraphPad Prism.
In this manner, agonist or antagonist compounds that bind to the receptor may be identified as they inhibit the binding of the labeled ligand to the membrane protein of cells expressing the said receptor. Non-specific binding was defined as the amount of radioactivity remaining after incubation of membrane protein in the presence of 10 μM of the unlabeled amine corresponding to the radioligand used. In equilibrium saturation binding assays, membrane preparations or intact cells transfected with the receptor are incubated in the presence of increasing concentrations of the labeled compound to determine the binding affinity of the labeled ligand. The binding affinities of unlabeled compounds may be determined in equilibrium competition binding assays, using a fixed concentration of labeled compound in the presence of varying concentrations of the displacing ligands.

[3] = molecular target: T2, hSNORF33 (Homo sapiens, UniProt Q96RJ0); assay: Electrophysiological response of Xenopus oocytes expressing hSNORF33 and CFTR; type: cell-based; parameters: expressed in transfected cells; host or cells: Xenopus laevis oocytes (mRNA injection, co-expressed CFTR); conditions: 100 μM tyramine; dependent on CFTR co-expression
T2 sequence (Q96RJ0 1-339): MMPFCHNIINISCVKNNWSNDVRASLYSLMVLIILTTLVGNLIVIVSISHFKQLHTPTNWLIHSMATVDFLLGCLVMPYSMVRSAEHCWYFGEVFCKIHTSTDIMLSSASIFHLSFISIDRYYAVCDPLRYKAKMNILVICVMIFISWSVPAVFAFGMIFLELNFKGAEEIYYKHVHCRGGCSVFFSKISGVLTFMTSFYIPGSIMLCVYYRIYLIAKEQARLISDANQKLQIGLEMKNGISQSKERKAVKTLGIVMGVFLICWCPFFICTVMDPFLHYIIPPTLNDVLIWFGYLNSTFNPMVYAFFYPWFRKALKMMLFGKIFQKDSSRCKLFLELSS
Procedure: Unless otherwise specified, oocytes were voltage clamped at a holding potential of −80 mV. During recordings, oocytes were bathed in continuously flowing (1-3 ml/min) medium containing 96 mM NaCl, 2 mM KCl, 1.8 mM CaCl2, 1 mM MgCl2, and 5 mM HEPES, pH 7.5 (ND96). […] Experiments were carried out at room temperature.

[4] = molecular target: T3, rat SNORF33 (Rattus norvegicus, UniProt Q923Y9); assay: cAMP response in stable rat SNORF33/HEK293 cells; type: cell-based; conditions: data not shown
T3 construct: expressed in transfected cells
T3 sequence (Q923Y9 whole entry): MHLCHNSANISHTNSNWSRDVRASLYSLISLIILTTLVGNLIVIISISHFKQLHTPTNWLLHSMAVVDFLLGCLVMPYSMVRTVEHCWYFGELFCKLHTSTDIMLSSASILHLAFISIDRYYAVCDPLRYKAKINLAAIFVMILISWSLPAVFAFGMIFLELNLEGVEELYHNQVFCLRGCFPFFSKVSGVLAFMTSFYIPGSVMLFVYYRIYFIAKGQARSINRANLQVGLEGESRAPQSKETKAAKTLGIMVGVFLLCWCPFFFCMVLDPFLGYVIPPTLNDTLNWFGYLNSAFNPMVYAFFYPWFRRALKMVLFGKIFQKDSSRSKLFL
Procedure: The receptor-mediated stimulation or inhibition of cyclic AMP (cAMP) formation may be assayed in cells expressing the mammalian receptors. Cells are plated in 96-well plates or other vessels and preincubated in a buffer such as HEPES buffered saline (NaCl (150 mM), CaCl2 (1 mM), KCl (5 mM), glucose (10 mM)) supplemented with a phosphodiesterase inhibitor such as 5 mM theophylline, with or without protease inhibitor cocktail (For example, a typical inhibitor cocktail contains 2 μg/ml aprotinin, […] leupeptin, and 10 μg/ml phosphoramidon.) for 20 min at 37° C., in 5% CO2. Test compounds are added with or without […] forskolin and incubated for an additional 10 min at 37° C. The medium is then aspirated and the reaction stopped by the addition of 100 mM HCl or other methods. The plates are stored at 4° C. for 15 min, and the cAMP content in the stopping solution is measured by radioimmunoassay. Radioactivity may be quantified using a gamma counter equipped with data reduction software. Specific modifications may be performed to optimize the assay for the receptor or to alter the detection method of cAMP.

In the case of `NCCc1c[nH]c2ccccc12` [Tryptamine (T), Tryptamine], the Ki [1] is given as 1 to 100 nM and the Ki [2] is given as 140 nM.
In the case of `NCCc1ccc(O)cc1` [Tyramine (TYR), Tyramine], the “Stimulation of hSNORF33 currents” value [3] is reported as “strongly stimulated”, the “Increase in cAMP” value [4] is reported as ~4 fold and the Ki [2] is reported as 19 nM and 20 nM.
